According to ChEMBL document CHEMBL1129923, “Antiallergic activity of some novel oligopeptides related to immunoglobulin E” (1997):
Square brackets hold non-standard residues; d marks the D form. Peptide text beside a SMILES is read from it. NMeA = CN[C@@H](C)C(=O)O

Tests used:
Assay type in all cases: functional
[1] = system: Rattus norvegicus; experiment: Tested for antiallergic activity by studying mast cell stabilising activity after ip administration at a dose of 1.0 mg/kg for five days in rats for four determinations; conditions: route intraperitoneal
[2] = system: Rattus norvegicus; experiment: Tested for antiallergic activity by studying the protection of PCA (passive cutaneous anaphylaxis) after ip administration at a dose of 0.5 mg/kg in rats for four determinations; conditions: route intraperitoneal
[3] = system: Rattus norvegicus; experiment: Tested for antiallergic activity by studying the protection of PCA (passive cutaneous anaphylaxis) after ip administration at a dose of 2.5 mg/kg in rats for four determinations; conditions: route intraperitoneal
[4] = system: Rattus norvegicus; experiment: Tested for antiallergic activity by studying the protection of PCA (passive cutaneous anaphylaxis) after ip administration at a dose of 10.0 mg/kg in rats for four determinations; conditions: route intraperitoneal
[5] = system: Rattus norvegicus; experiment: Effective dose required for inhibition of PCA at a compound concentration of 7.5 mg/kg po
[6] = system: Rattus norvegicus; experiment: Tested for antiallergic activity by studying the protection of PCA (passive cutaneous anaphylaxis) after ip administration at a dose of 1.0 mg/kg in rats for four determinations; conditions: route intraperitoneal
[7] = system: Rattus norvegicus; experiment: Tested for antiallergic activity by studying mast cell stabilising activity after ip administration at a dose of 0.25 mg/kg in rats for four determinations; conditions: route intraperitoneal
[8] = system: Rattus norvegicus; experiment: Tested for antiallergic activity by studying mast cell stabilising activity after ip administration at a dose of 0.1 mg/kg for five days in rats for four determinations; conditions: route intraperitoneal
[9] = system: Rattus norvegicus; experiment: Tested for antiallergic activity by studying mast cell stabilising activity after ip administration at a dose of 2.5 mg/kg for five days in rats for four determinations; conditions: route intraperitoneal
[10] = system: Rattus norvegicus; experiment: Tested for antiallergic activity by studying the protection of PCA (passive cutaneous anaphylaxis) after ip administration at a dose of 1 mg/kg in rats for four determinations; conditions: route intraperitoneal
[11] = system: Rattus norvegicus; experiment: Effective dose required for protection of mast cells using mast cell stabilising assay at a compound concentration of 7.5 mg/kg po
[12] = system: Rattus norvegicus; experiment: Tested for antiallergic activity by studying the protection of PCA (passive cutaneous anaphylaxis) after ip administration at a dose of 5.0 mg/kg in rats for four determinations; conditions: route intraperitoneal
[13] = system: Rattus norvegicus; experiment: Tested for antiallergic activity by studying mast cell stabilising activity after ip administration at a dose of 0.5 mg/kg for five days in rats for four determinations; conditions: route intraperitoneal
[14] = system: Rattus norvegicus; experiment: Tested for antiallergic activity by studying mast cell stabilising activity after ip administration at a dose of 0.2 mg/kg for five days in rats for four determinations; conditions: route intraperitoneal
[15] = system: Rattus norvegicus; experiment: Tested for antiallergic activity by studying the protection of PCA (passive cutaneous anaphylaxis) after ip administration at a dose of 7.5 mg/kg in rats for four determinations; conditions: route intraperitoneal
[16] = system: Rattus norvegicus; experiment: Tested for antiallergic activity by studying mast cell stabilising activity after ip administration at a dose of 50 mg/kg in rats for four determinations; conditions: route intraperitoneal
[17] = system: Rattus norvegicus; experiment: Tested for antiallergic activity by studying the protection of PCA (passive cutaneous anaphylaxis) after ip administration at a dose of 50 mg/kg in rats for four determinations; conditions: route intraperitoneal

With C[C@H](N)C(=O)N[C@@H](CC(=O)O)C(=O)N[C@@H](CO)C(=O)N[C@@H](CC(=O)O)C(=O)NCC(=O)N[C@@H](CCCCN)C(=O)O the Protection [1] was 72%, the Protection [2] was 44% and the Protection [3] was 67%. The Protection [4] was 89%, the ED50 [5] was 0.9 mg/kg and the Protection [6] was 52%. It also gave a Protection [7] of 64%, a Protection [8] of 34% and a Protection [9] of 79%. The Protection [10] was 75%, the ED50 [11] was 3 mg/kg and the Protection [12] was 75%. It also gave a Protection [13] of 47%, a Protection [14] of 41% and a Protection [15] of 86%.
C[C@@H](N)C(=O)N[C@@H](CC(=O)O)C(=O)N[C@@H](CO)C(=O)N[C@@H](CC(=O)O)C(=O)NCC(=O)N[C@@H](CCCCN)C(=O)O gave a Protection [7] of 61% and a Protection [10] of 64%.
For CN[C@@H](C)C(=O)N[C@@H](CC(=O)O)C(=O)N[C@@H](CO)C(=O)N[C@@H](CC(=O)O)C(=O)NCC(=O)N[C@@H](CCCCN)C(=O)O (H-[NMeA]DSDGK-OH), the Protection [7] was 60% and the Protection [10] was 67%.
Compound O=C([O-])c1cc(=O)c2c(OCC(O)COc3cccc4oc(C(=O)[O-])cc(=O)c34)cccc2o1.[Na+].[Na+] [CROMOLYN SODIUM] has a Protection [16] of 84% and a Protection [17] of 77%.
Compound H-ADSDGK-NH2 has a Protection [7] of 61% and a Protection [10] of 68%.
In the case of H-AESDGK-OH, the Protection [7] is reported as 63% and the Protection [10] is reported as 45%.
With H-AGSDGK-OH the Protection [1] was 80%, the Protection [2] was 47% and the Protection [3] was 69%. For the same compound, the Protection [4] was 90%, the ED50 [5] was 0.6 mg/kg and the Protection [6] was 57%. The Protection [7] was 78%, the Protection [8] was 39% and the Protection [9] was 87%. It also gave a Protection [10] of 78%, an ED50 [11] of 1 mg/kg and a Protection [12] of 77%. For the same compound, the Protection [13] was 70%, the Protection [14] was 50% and the Protection [15] was 88%.
